Laboratory results: ChEMBL document CHEMBL4765253, “Discovery, synthesis, and optimization of an N-alkoxy indolylacetamide against HIV-1 carrying NNRTI-resistant mutations from the Isatis indigotica root” (Eur J Med Chem, 2020)

Columns and labels:
[1] = tested on: Human immunodeficiency virus 1; test: Antiviral activity against VSVG/wild-type HIV-1 infected in human HEK 293T cells assessed as inhibition of virus replication preincubated with cells for 15 mins prior to viral infection and measured at 48 hrs post-infection by luciferase reporter gene assay; format: functional, organism-based, HEK293T; details: Human immunodeficiency virus 1, HEK-293T
HEK-293T [2] = test: Cytotoxicity against human HEK 293T cells assessed as reduction in cell viability measured after 48 hrs by Celltiter-glo assay; format: cell-based
[3] = tested on: Human immunodeficiency virus 1; test: Antiviral activity against VSVG/wild-type HIV-1 infected in human HEK 293T cells assessed as viral infection at 10 uM preincubated with cells for 15 mins prior to viral infection and measured at 48 hrs post-infection by luciferase reporter gene assay; format: functional, HEK293T; details: time 2895 min, 48.25 h
HEK-293T [4] = test: Cytotoxicity against human HEK 293T cells assessed as cell viability at 30 uM measured after 48 hrs by Celltiter-glo assay; format: cell-based
[5] = Selectivity index, ratio of CC50 for human HEK 293T cells to EC50 for VSVG/wild type HIV1 infected in human HEK 293T cells; format: toxicity, cell-based; details: read-out: Ratio CC50/EC50

Row | SMILES | EC50 [1] [µM] | CC50 (HEK-293T [2]) [µM] | Activity [3] [%] | Activity (HEK-293T [4]) [%] | selectivity ratio [5]
1 | COc1ccc(COn2cc(CC(=O)Nc3ccccc3Cl)c3ccccc32)cc1 | > 10 | 20.3 | 73.2 |  | 
2 | COn1cc(CC(=O)Nc2ccc([N+](=O)[O-])cc2)c2ccccc21 | > 10 | > 30 | 81.41 | 54 | 
3 | COn1cc(CC(=O)Nc2ccc(Cl)cc2)c2ccccc21 | > 10 | > 30 | 103.55 | 51.01 | 
4 | CCCOn1cc(CC(=O)Nc2ccccc2C(F)(F)F)c2ccccc21 | 4.28 | 24.9 |  |  | 5.81
5 | CCCCCCCCOn1cc(CC(=O)Nc2ccccc2Cl)c2ccccc21 | 4.4 | 22.9 |  |  | 5.21
6 | COC(=O)c1ccccc1NC(=O)Cc1cn(O)c2ccccc12 | > 10 | 24.6 | 107.1 |  | 
7 | CCOn1cc(CC(=O)Nc2ccccc2C(=O)OC)c2ccccc21 | 5.7 | > 30 |  | 52.76 | > 5.26
8 | CCCCCCCCCCOn1cc(CC(=O)Nc2ccccc2Cl)c2ccccc21 | > 10 | > 30 | 97.73 | 52.8 | 
9 | CCOn1cc(CC(=O)Nc2ccccc2Cl)c2ccccc21 | 0.86 | 20.8 |  |  | 24.2
10 | COn1cc(CC(=O)Nc2ccccc2C)c2ccccc21 | > 10 | > 30 | 53.31 | 62.74 | 
11 | COC(=O)c1ccccc1NC(=O)CCc1cn(OC)c2ccccc12 | > 10 | 26.8 | 74.25 |  | 
12 | COn1cc(CC(=O)Nc2cccc(Cl)c2)c2ccccc21 | > 10 | > 30 | 113 | 61.02 | 
13 | CCCCCOn1cc(CC(=O)Nc2ccccc2Cl)c2ccccc21 | 0.63 | 18.7 |  |  | 29.7
14 | COn1cc(CC(=O)Nc2ccccc2F)c2ccccc21 | > 10 | 28.6 | 72.89 |  | 
15 | COC(=O)c1ccc(NC(=O)Cc2cn(OC)c3ccccc23)cc1 | > 10 | > 30 | 104.33 | 72.64 | 
16 | COc1cc(NC(=O)Cc2cn(OC)c3ccccc23)cc(OC)c1 | > 10 | 21.6 | 98.07 |  | 
17 | CCCOn1cc(Cc2ccncc2Cl)c2ccccc21 | > 10 | > 30 | 65.67 | 67.37 | 
18 | COn1cc(CC(=O)Nc2ccc(C)cc2)c2ccccc21 | > 10 | > 30 | 124.35 | 52.47 | 
19 | COn1cc(CC(=O)Nc2ccncc2Br)c2ccccc21 | 0.66 | 18.6 |  |  | 28.1
20 | COn1cc(CC(=O)Nc2cc(C)cc(C)c2)c2ccccc21 | > 10 | > 30 | 87.28 | 62.62 | 
21 | CCCOn1cc(Cc2ccncc2)c2ccccc21 | > 10 | > 30 | 99.48 | 69.96 | 
22 | CCCCCOn1cc(CC(=O)Nc2ccncc2Cl)c2ccccc21 | 0.13 | 22 |  |  | 169
23 | O=C(Cc1cn(OCc2ccccc2)c2ccccc12)Nc1ccccc1Cl | 8.55 | 16.5 |  |  | 1.93
24 | CC(=O)On1cc(CC(=O)Nc2ccccc2Cl)c2ccccc21 | > 10 | 28.1 | 146.89 |  | 

Row | SMILES | EC50 [1] [µM] | CC50 (HEK-293T [2]) [µM] | Activity [3] [%] | Activity (HEK-293T [4]) [%] | selectivity ratio [5]
25 | CCCOn1cc(CC(=O)Nc2ccncn2)c2ccccc21 | 3.3 | 17.9 |  |  | 5.43
26 | COc1ccccc1NC(=O)Cc1cn(OC)c2ccccc12 | > 10 | > 30 | 71.46 | 59.57 | 
27 | COn1cc(CC(=O)Nc2ccccc2)c2ccccc21 | > 10 | 28 | 113.22 |  | 
28 | CCCCOn1cc(CC(=O)Nc2ccccc2Cl)c2ccccc21 | 0.64 | 29.1 |  |  | 45.5
29 | COn1cc(CC(=O)Nc2ccccc2Cl)c2ccccc21 | 3.3 | 27.8 |  |  | 8.42
30 | COC(=O)c1ccccc1NC(=O)CC1CNc2ccccc21 (configuration not stated) | > 10 | > 30 | 82.96 | 71.46 | 
31 | COc1ccc(NC(=O)Cc2cn(OC)c3ccccc23)cc1 | > 10 | > 30 | 128.61 | 86.09 | 
32 | CCCOn1cc(Cc2c(Cl)cncc2Cl)c2ccccc21 | > 10 | > 30 | 93.41 | 77.47 | 
33 | COn1cc(CC(=O)Nc2cccnc2)c2ccccc21 | > 10 | > 30 | 118.26 | 78.7 | 
34 | COn1cc(CC(=O)Nc2ccncc2)c2ccccc21 | 4.95 | 14.3 |  |  | 2.88
35 | O=C(Cc1cn(OC(=O)c2ccccc2)c2ccccc12)Nc1ccccc1Cl | > 10 | 29.4 | 113.06 |  | 
36 | CCc1ccccc1NC(=O)Cc1cn(OC)c2ccccc12 | > 10 | > 30 | 64.33 | 68.5 | 
37 | COn1cc(CC(=O)Nc2ccc(C)c(C)c2)c2ccccc21 | > 10 | > 30 | 95.02 | 51.62 | 
38 | COn1cc(CC(=O)Nc2ccncc2Cl)c2ccccc21 | 0.53 | 20 |  |  | 37.7
39 | COn1cc(CC(=O)Nc2ccccn2)c2ccccc21 | > 10 | > 30 | 138.11 | 63.67 | 
40 | CCCCCCCCCOn1cc(CC(=O)Nc2ccccc2Cl)c2ccccc21 | > 10 | 28.9 | 58.3 |  | 
41 | COC(=O)c1cccc(NC(=O)Cc2cn(OC)c3ccccc23)c1 | > 10 | > 30 | 109.33 | 50.46 | 
42 | CCCOn1cc(CC(=O)Nc2ccncc2F)c2ccccc21 | 0.33 | 14.1 |  |  | 42.8
43 | COC(=O)c1ccccc1NC(=O)CCCc1cn(OC)c2ccccc12 | > 10 | > 30 | 82.07 | 61.31 | 
44 | COc1cc(NC(=O)Cc2cn(OC)c3ccccc23)cc(OC)c1OC | > 10 | 13.9 | 47.94 |  | 
45 | COC(=O)c1ccccc1NC(=O)Cc1c[nH]c2ccccc12 | > 10 | > 30 | 91.98 | 65.5 | 
46 | CCCCCCCOn1cc(CC(=O)Nc2ccccc2Cl)c2ccccc21 | 1.95 | 23.9 |  |  | 12.2
47 | CCOC(=O)c1ccccc1NC(=O)Cc1cn(OC)c2ccccc12 | > 10 | 29.1 | 60.76 |  | 
48 | COc1cccc(NC(=O)Cc2cn(OC)c3ccccc23)c1 | > 10 | > 30 | 104.29 | 86.68 | 
